The values that follow come from ChEMBL document CHEMBL2203184, “Synthesis of novel triplet drugs with 1,3,5-trioxazatriquinane skeletons and their pharmacologies. 3: synthesis of novel triplet drugs with the bis(epoxymethano) or bis(dimethylepoxymethano) structure (double-capped triplet)” (Bioorg Med Chem Lett, 2012).

Assay [1] in a line: Selectivity ratio of Ki for delta opioid receptor in mouse whole brain without cerebellum to Ki for kappa opioid receptor in guinea pig cerebellum.
Assay [2] in a line: Selectivity ratio of Ki for kappa opioid receptor in guinea pig cerebellum to Ki for mu opioid receptor in mouse whole brain without cerebellum.
Assay [3] concerns the target Delta-type opioid receptor (Mus musculus, UniProt P32300). The assay is described as follows: Displacement of [3H]DPDPE from delta opioid receptor in mouse whole brain without cerebellum. In general terms: In a radioligand displacement assay an active substance lowers the binding of a labelled ligand.
Assay [4] concerns the target Kappa-type opioid receptor (Cavia porcellus, UniProt P41144). The assay is described as follows: Displacement of [3H]U-69,593 from kappa opioid receptor in guinea pig cerebellum.
Assay [5] can be described thus: Selectivity ratio of Ki for mu opioid receptor in mouse whole brain without cerebellum to Ki for kappa opioid receptor in guinea pig cerebellum.
The species named for a further assay is Mus musculus. Kind of assay: Selectivity ratio of Ki for delta opioid receptor in mouse whole brain without cerebellum to Ki for mu opioid receptor in mouse whole brain without cerebellum.
The target of assay [6] is Mu-type opioid receptor (Mus musculus, UniProt P42866). Kind of assay: Displacement of [3H]DAMGO from mu opioid receptor in mouse whole brain without cerebellum.
Assay [7] deals with T1, Mu-type opioid receptor (Homo sapiens, UniProt P35372). Kind of assay: Agonist activity at human mu opioid receptor expressed in CHO cells assessed as [35S]GTPgammaS binding after 2 hrs by liquid scintillation counting. In kind it is functional, cell-based. On the technique in general: GTPγS is a poorly hydrolysed GTP analogue; its binding reports G protein activation.
For assay [8], the target named is T1, Mu-type opioid receptor. Kind of assay: Agonist activity at human mu opioid receptor expressed in CHO cells assessed as [35S]GTPgammaS binding after 2 hrs by liquid scintillation counting relative to DAMGO. In kind it is functional, cell-based.
In assay [9] the target is T2, Kappa-type opioid receptor (Homo sapiens, UniProt P41145). Kind of assay: Agonist activity at human kappa opioid receptor expressed in CHO cells assessed as [35S]GTPgammaS binding after 2 hrs by liquid scintillation counting relative to U-69,593. In kind it is functional, cell-based.
The target in assay [10] is T2, Kappa-type opioid receptor. The assay is described as follows: Agonist activity at human kappa opioid receptor expressed in CHO cells assessed as [35S]GTPgammaS binding after 2 hrs by liquid scintillation counting. In kind it is functional, cell-based.

Structures are written as SMILES.

Chain of Kappa-type opioid receptor (Cavia porcellus, UniProt P41144) (P41144 whole entry): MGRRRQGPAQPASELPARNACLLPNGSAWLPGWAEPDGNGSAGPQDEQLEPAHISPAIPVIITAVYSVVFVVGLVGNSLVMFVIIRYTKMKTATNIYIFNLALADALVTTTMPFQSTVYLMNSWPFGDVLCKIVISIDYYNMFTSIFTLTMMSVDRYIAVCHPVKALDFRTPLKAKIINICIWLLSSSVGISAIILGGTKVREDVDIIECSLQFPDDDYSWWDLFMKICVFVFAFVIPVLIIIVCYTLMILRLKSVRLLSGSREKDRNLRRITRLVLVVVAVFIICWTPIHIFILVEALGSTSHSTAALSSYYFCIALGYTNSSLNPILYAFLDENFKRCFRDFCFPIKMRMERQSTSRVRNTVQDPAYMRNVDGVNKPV
Chain of Delta-type opioid receptor (P32300 whole entry): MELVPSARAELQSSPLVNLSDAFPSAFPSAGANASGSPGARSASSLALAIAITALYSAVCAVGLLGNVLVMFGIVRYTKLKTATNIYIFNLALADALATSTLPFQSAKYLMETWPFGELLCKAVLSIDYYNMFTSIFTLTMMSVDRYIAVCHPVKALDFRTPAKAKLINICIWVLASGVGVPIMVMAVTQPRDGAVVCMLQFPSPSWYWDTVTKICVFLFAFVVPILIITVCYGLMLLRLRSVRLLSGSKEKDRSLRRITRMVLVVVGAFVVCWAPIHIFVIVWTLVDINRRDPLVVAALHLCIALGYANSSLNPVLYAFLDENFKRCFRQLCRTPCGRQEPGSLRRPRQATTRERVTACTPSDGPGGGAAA
Chain of Mu-type opioid receptor (Mus musculus, UniProt P42866) (P42866 whole entry): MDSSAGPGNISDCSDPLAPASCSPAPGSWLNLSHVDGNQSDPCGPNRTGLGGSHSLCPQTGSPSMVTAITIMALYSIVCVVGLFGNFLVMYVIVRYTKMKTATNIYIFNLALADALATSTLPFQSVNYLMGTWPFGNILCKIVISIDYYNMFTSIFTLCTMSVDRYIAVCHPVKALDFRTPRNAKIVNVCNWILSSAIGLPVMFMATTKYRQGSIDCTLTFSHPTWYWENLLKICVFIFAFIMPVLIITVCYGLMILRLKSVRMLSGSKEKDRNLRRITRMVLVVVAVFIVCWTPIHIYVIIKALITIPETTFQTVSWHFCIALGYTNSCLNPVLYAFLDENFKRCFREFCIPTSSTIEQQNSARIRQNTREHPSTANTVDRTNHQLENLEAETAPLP
T2 sequence (P41145 whole entry): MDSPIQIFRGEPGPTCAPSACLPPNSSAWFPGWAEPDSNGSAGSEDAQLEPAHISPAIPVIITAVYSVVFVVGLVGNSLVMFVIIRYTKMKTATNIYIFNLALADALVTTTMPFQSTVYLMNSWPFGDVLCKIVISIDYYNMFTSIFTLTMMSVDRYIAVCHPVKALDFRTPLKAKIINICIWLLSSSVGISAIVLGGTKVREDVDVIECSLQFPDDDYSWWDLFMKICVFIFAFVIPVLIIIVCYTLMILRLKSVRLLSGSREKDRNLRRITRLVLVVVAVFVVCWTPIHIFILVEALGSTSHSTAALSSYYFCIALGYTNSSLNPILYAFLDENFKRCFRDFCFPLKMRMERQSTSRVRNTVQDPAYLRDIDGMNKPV
T1 sequence (P35372 whole entry): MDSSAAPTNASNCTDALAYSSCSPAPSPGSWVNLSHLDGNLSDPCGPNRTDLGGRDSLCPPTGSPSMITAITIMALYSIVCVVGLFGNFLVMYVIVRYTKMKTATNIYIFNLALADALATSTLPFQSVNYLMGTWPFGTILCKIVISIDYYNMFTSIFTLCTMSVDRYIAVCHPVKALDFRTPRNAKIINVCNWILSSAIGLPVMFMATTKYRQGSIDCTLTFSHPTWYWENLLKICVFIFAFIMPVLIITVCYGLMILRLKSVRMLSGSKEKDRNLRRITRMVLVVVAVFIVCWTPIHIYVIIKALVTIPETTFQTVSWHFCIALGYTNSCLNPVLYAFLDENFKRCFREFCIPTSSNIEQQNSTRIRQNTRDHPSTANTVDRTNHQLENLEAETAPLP

In general, Ki refers to the equilibrium dissociation constant of an inhibitor or competing ligand from its target. Read a low Ki as higher affinity. With `CC(C)CN1CC[C@]23c4c5ccc(O)c4O[C@H]2[C@]2(CC[C@@]3(O)[C@H]1C5)O[C@@H]1CO[C@@H]3CO[C@H]2N31`, the Ratio Ki in [1] is less than 0.079; in [2] it was greater than 10.1; in assay [5] it was less than 0.099; in the assay filed under Mus musculus, 0.798. Further, the Ki in [3] is 79.1 nM; in assay [4], greater than 1000 nM; on Mu-type opioid receptor [6], 99.1 nM.

On to `CC1(C)O[C@@H]2N3[C@H]1O[C@]1(CC[C@@]4(O)[C@H]5Cc6ccc(O)c7c6[C@@]4(CCN5CC4CC4)[C@H]1O7)[C@@H]3OC2(C)C`, for which the Ratio Ki in assay [1] was 0.909; in [2] it was 4.52; in [5], 0.221; in the assay listed under Mus musculus, 4.11. In addition, the figures for the Ki (in assay [3]; in assay [4]; on Mu-type opioid receptor [6]) were 22 nM, 24.2 nM and 5.35 nM, respectively.

With `CC1(C)O[C@H]2N3[C@@H]1O[C@]1(CC[C@@]4(O)[C@H]5Cc6ccc(O)c7c6[C@@]4(CCN5CC4CC4)[C@H]1O7)[C@H]3OC2(C)C`, the Ratio Ki in assay [1] was found to be 9.1; in assay [2], 3.69; in assay [5], 0.271; in the assay filed under Mus musculus, 33.6. In addition, the Ki in [3] amounted to 71.8 nM; in assay [4] it was 7.89 nM; on Mu-type opioid receptor [6] it was 2.14 nM.

Regarding `CC(C)CN1CC[C@]23c4c5ccc(O)c4O[C@H]2[C@]2(CC[C@@]3(O)[C@H]1C5)O[C@H]1N3[C@H](OC1(C)C)C(C)(C)O[C@@H]32`, the results for the Ratio Ki (in assay [2]; in assay [5]; in the assay filed under Mus musculus) were greater than 11.4, less than 0.088 and greater than 11.4, respectively. Besides, the Ki was greater than 1000 nM in [3], greater than 1000 nM in assay [4] and 88.1 nM at Mu-type opioid receptor [6].

On to `Oc1ccc2c3c1O[C@H]1[C@]4(CC[C@@]5(O)[C@@H](C2)N(Cc2ccccc2)CC[C@]315)O[C@@H]1CO[C@@H]2CO[C@H]4N21`, for which the Ki (in assay [3]; in assay [4]; at Mu-type opioid receptor [6]) was greater than 1000 nM in each case.

As for `Oc1ccc2c3c1O[C@H]1[C@]4(CC[C@@]5(O)[C@@H](C2)N(Cc2ccccc2)CC[C@]315)O[C@H]1CO[C@H]2CO[C@@H]4N21`, the Ratio Ki in assay [1] was less than 0.084; in assay [2] it was greater than 1.72; in assay [5], less than 0.581; in the assay filed under Mus musculus, 0.145. The results for the Ki (in assay [3]; in [4]; at Mu-type opioid receptor [6]) were 84 nM, greater than 1000 nM and 581 nM, respectively.

With `Oc1ccc2c3c1O[C@H]1[C@]4(CC[C@@]5(O)[C@@H](C2)N(CC2CC2)CC[C@]315)O[C@H]1CO[C@H]2CO[C@@H]4N21`, the Ratio Ki in assay [1] turned out to be 13.2; in assay [2], 0.869; in assay [5], 1.15; in the assay listed under Mus musculus, 11.5. For the same molecule, the Ki was 78.6 nM in assay [3], 5.95 nM in [4] and 6.85 nM on Mu-type opioid receptor [6].

A word on the EC50: it is the concentration at which the effect is half-maximal. The Emax is the greatest response seen or fitted, relative to the assay's reference. For `CN1CC[C@]23c4c5ccc(O)c4O[C@H]2[C@]2(CC[C@@]3(O)[C@H]1C5)O[C@H]1N3[C@H](OC1(C)C)C(C)(C)O[C@@H]32`, the Ratio Ki in assay [1] is less than 0.079; in assay [2] it was greater than 541; in assay [5] it was less than 0.0019; in the assay filed under Mus musculus it was 42.8. For the same molecule, the EC50 at Mu-type opioid receptor [7] turned out to be 6 nM. Further, the Ki is 79.1 nM in [3], greater than 1000 nM in assay [4] and 1.85 nM on Mu-type opioid receptor [6]. Also, the maximum response (Emax) at Mu-type opioid receptor [8] worked out at 79.1%.

Regarding `CN1CC[C@]23c4c5ccc(O)c4O[C@H]2[C@]2(CC[C@@]3(O)[C@H]1C5)O[C@H]1CO[C@H]3CO[C@@H]2N31`, the Ratio Ki in assay [1] is less than 0.133; in assay [2], greater than 420; in [5] it was less than 0.0024; in the assay filed under Mus musculus, 55.9. Further, the values for the Ki (in assay [3]; in assay [4]; on Mu-type opioid receptor [6]) were 133 nM, greater than 1000 nM and 2.38 nM, respectively.

On to `CN1CC[C@]23c4c5ccc(O)c4O[C@H]2[C@]2(CC[C@@]3(O)[C@H]1C5)O[C@@H]1N3[C@@H](OC1(C)C)C(C)(C)O[C@H]32`, for which the Ratio Ki in assay [1] was less than 0.0098; in assay [2], greater than 375; in [5] it was less than 0.0027; in the assay filed under Mus musculus it was 3.66. The Ki in assay [3] is 9.78 nM; in assay [4], greater than 1000 nM; at Mu-type opioid receptor [6], 2.67 nM.

For `CN1CC[C@]23c4c5ccc(O)c4O[C@H]2[C@]2(CC[C@@]3(O)[C@H]1C5)O[C@@H]1CO[C@@H]3CO[C@H]2N31`, the Ratio Ki was found to be 1.57 in assay [1], 46.6 in assay [2], 0.0214 in [5] and 73.1 in the assay listed under Mus musculus. The Ki in assay [3] came to 171 nM; in [4] it was 109 nM; on Mu-type opioid receptor [6], 2.34 nM.

On to `CC(C)CN1CC[C@]23c4c5ccc(O)c4O[C@H]2[C@]2(CC[C@@]3(O)[C@H]1C5)O[C@H]1CO[C@H]3CO[C@@H]2N31`, for which the Ratio Ki in assay [1] was less than 0.848; in [2], greater than 11.7; in assay [5], less than 0.086; in the assay filed under Mus musculus, 9.89. In addition, the values for the Ki (in [3]; in assay [4]; on Mu-type opioid receptor [6]) were 848 nM, greater than 1000 nM and 85.7 nM, respectively.

For `CC1(C)O[C@@H]2N3[C@H]1O[C@]1(CC[C@@]4(O)[C@H]5Cc6ccc(O)c7c6[C@@]4(CCN5Cc4ccccc4)[C@H]1O7)[C@@H]3OC2(C)C`, the Ki (in assay [3]; in assay [4]; at Mu-type opioid receptor [6]) was greater than 1000 nM throughout.

With `CC1(C)O[C@H]2N3[C@@H]1O[C@]1(CC[C@@]4(O)[C@H]5Cc6ccc(O)c7c6[C@@]4(CCN5Cc4ccccc4)[C@H]1O7)[C@H]3OC2(C)C`, the Ratio Ki in [2] is greater than 2.22; in assay [5], less than 0.45; in the assay filed under Mus musculus, greater than 2.22. For the same molecule, the results for the Ki (in assay [3]; in assay [4]; on Mu-type opioid receptor [6]) were greater than 1000 nM, greater than 1000 nM and 450 nM, respectively.

Turning to `CC(C)CN1CC[C@]23c4c5ccc(O)c4O[C@H]2[C@]2(CC[C@@]3(O)[C@H]1C5)O[C@@H]1N3[C@@H](OC1(C)C)C(C)(C)O[C@H]32`, the Ratio Ki in [1] was less than 0.541; in [2] it was greater than 7.46; in [5], less than 0.134; in the assay listed under Mus musculus it was 4.04. Further, the Ki in assay [3] is 541 nM; in assay [4], greater than 1000 nM; on Mu-type opioid receptor [6] it was 134 nM.

Consider `Oc1ccc2c3c1O[C@H]1[C@]4(CC[C@@]5(O)[C@@H](C2)N(CC2CC2)CC[C@]315)O[C@@H]1CO[C@@H]2CO[C@H]4N21`, for which the Ratio Ki worked out at 25.9 in [1], 0.446 in assay [2], 2.24 in assay [5] and 11.5 in the assay listed under Mus musculus. The maximal response (Emax) in assay [9] worked out at 70%. Also, the results for the inhibitory constant (Ki) (in assay [3]; in assay [4]; at Mu-type opioid receptor [6]) were 99.8 nM, 3.86 nM and 8.65 nM, respectively. In [10], the concentration for a half-maximal effect (EC50) was found to be 25 nM.
